Publication PMC6884456, “Supreme activity of gramicidin S against resistant, persistent and biofilm cells of staphylococci and enterococci” (Scientific Reports, 2019)
Where no end group is shown, it is not given here.

What was measured:
S. aureus DSM 1104 [1] = format: cell-based, Staphylococcus aureus; details: S. aureus DSM 1104; 10 µl from MIC plates spotted on Mueller-Hinton agar, overnight 37 °C, no colonies on two plates
S. aureus DSM 1104 SCV [2] = format: cell-based, Staphylococcus aureus; details: spotted from MIC plates on Mueller-Hinton agar, overnight, no colonies
Procedure: MBC was determined directly after the MIC evaluation.

S. aureus MRSA3 = format: cell-based, Staphylococcus aureus; details: S. aureus MRSA3; spotted from MIC plates on Mueller-Hinton agar, overnight, no colonies
S. aureus MRSA4 = format: cell-based, Staphylococcus aureus; details: S. aureus MRSA4; spotted from MIC plates on Mueller-Hinton agar, overnight, no colonies
S. aureus MRSA9 = format: cell-based, Staphylococcus aureus; details: S. aureus MRSA9; spotted from MIC plates on Mueller-Hinton agar, overnight, no colonies
S. aureus MRSA538 SCV = details: spotted from MIC plates on Mueller-Hinton agar, overnight, no colonies
Procedure: (§1) MBC was determined directly after the MIC evaluation. The 10 µl samples of all 8 dilution rows in the microtiter plates were spotted on square Mueller-Hinton agar plates and incubated overnight at 37 °C and 5% CO2. The MBC was determined as the concentration at which no bacterial colonies were obtained on the two parallel spotted plates.

S. aureus MRSA8 SCV [3] = details: spotted from MIC plates on Mueller-Hinton agar, overnight, no colonies
Procedure: as §1

S. aureus MRSA9 SCV = details: spotted from MIC plates on Mueller-Hinton agar, overnight, no colonies
Procedure: as §1

E. faecalis DSM 2570 [4] = format: cell-based, Enterococcus faecalis; details: E. faecalis DSM 2570; spotted from MIC plates on Mueller-Hinton agar, overnight, no colonies
E. faecalis WW4 = format: cell-based, Enterococcus faecalis; details: E. faecalis WW4; spotted from MIC plates on Mueller-Hinton agar, overnight, no colonies
E. faecalis WW6 [5] = format: cell-based, Enterococcus faecalis; details: E. faecalis WW6; spotted from MIC plates on Mueller-Hinton agar, overnight, no colonies
E. faecalis TRE1 = format: cell-based, Enterococcus faecalis; details: E. faecalis TRE1; spotted from MIC plates on Mueller-Hinton agar, overnight, no colonies
E. faecalis TRE2 [6] = format: cell-based, Enterococcus faecalis; details: E. faecalis TRE2; spotted from MIC plates on Mueller-Hinton agar, overnight, no colonies
E. faecalis TRE4 = format: cell-based, Enterococcus faecalis; details: E. faecalis TRE4; spotted from MIC plates on Mueller-Hinton agar, overnight, no colonies
E. faecium VRE1 = format: cell-based, Enterococcus faecium; details: E. faecium VRE1; spotted from MIC plates on Mueller-Hinton agar, overnight, no colonies
E. faecium VRE2 = format: cell-based, Enterococcus faecium; details: E. faecium VRE2; spotted from MIC plates on Mueller-Hinton agar, overnight, no colonies
S. aureus DSM 1104 SCV [7] = format: cell-based, Staphylococcus aureus; details: value in parentheses
Procedure: (§2) This parameter quantifies the ability of the peptides to prevent biofilm outgrowth.
(§3) After co-incubation with peptides at 37 °C and 5% CO2 without agitation for 24 hours, the planktonic cells were washed, and Crystal violet staining was applied.

E. faecalis DSM 2570 [8] = details: E. faecalis DSM 2570; value in parentheses
Procedure: as §2, §3

E. faecalis TRE2 [9] = details: E. faecalis TRE2; value in parentheses
Procedure: as §2, §3

E. faecalis WW6 [10] = details: E. faecalis WW6; Todd-Hewitt broth, 5 × 10^7 CFU/ml, 24 h, 37 °C, Crystal violet
Procedure: as §2, §3

S. aureus DSM 1104 [11] = details: S. aureus DSM 1104; value in parentheses
Procedure: as §2, §3

S. aureus MRSA8 SCV [12] = details: value in parentheses
Procedure: as §2, §3

[13] = biological target: human serum albumin (HSA) (Homo sapiens, UniProt P02768); assay: HSA binding, biomimetic chromatography; details: Chiralpak-HSA column
Procedure: (§4) HPLC was performed on an Agilent 1100 system with an ultraviolet diode array detector. […] Binding measurements were performed using Regis Technologies IAM.PC.DD2 (100 × 4.6 mm), HiChrom Chiralpak-HSA (50 × 3 mm) and HiChrom Chiralpak-AGP (50 × 3 mm) columns. […] Retention times were converted to log k and % binding, using calibration routines described in[72].

[14] = tested on: α1-acid glycoprotein (AGP); assay: AGP binding, biomimetic chromatography; details: Chiralpak-AGP column
Procedure: as §4

[15] = Chromatographic hydrophobicity index (CHI), C18
Procedure: as §4

Danio rerio embryos = assay: Acute toxicity in Danio rerio embryos; format: in vivo; details: zebrafish embryos 72 hpf, E3 medium, heart beat
Procedure: Experiments were performed in accordance with the relevant OECD testing guidelines[73] and German animal protection standards. Wild type D. rerio embryos were obtained at the European Zebrafish Resource Center (Karlsruhe). Fertilized eggs (6 hpf) were raised in 4 ml of embryonic medium (E3) at 28 °C until 72 hpf (6-well plate, 20 eggs/well). Embryos were transferred into flat-bottom glass vials (E3, 1 ml, 15–20 embryos/vial). Peptides were added as 20 µl aliquots in 10% dimethyl sulfoxide in serial 2-fold dilutions. Toxicity was expressed as the concentration at which 50% of the embryos were visually observed to die (measured at 1 and 3 hours exposure) by identifying the heart beat.

human erythrocytes = assay: Haemolysis assay; format: cell-based; details: 0.25% human erythrocyte suspension, 37 °C, 30 min, A540, relative to 0.1% Triton X-100
Procedure: Haemolytic activity was determined with a serial 2-fold dilution assay. Citrate phosphate dextrose-stabilized human erythrocyte suspensions were obtained from Karlsruhe Municipal Hospital. […] The mixture was pelleted (13 000 rpm, 10 min, 4 °C), and the absorbance of the supernatant was recorded at 540 nm vs. reaction buffer. The extent of haemolysis was related to the action of 0.1% Triton X-100 (100%).

[16] = 50 mM ammonium acetate pH 7.4, 0–35% 2-propanol gradient, calibrated retention times, UV
[17] = pH 7.4, 0–35% 2-propanol gradient, value in parentheses

Chain of human serum albumin (HSA) (P02768 25-609): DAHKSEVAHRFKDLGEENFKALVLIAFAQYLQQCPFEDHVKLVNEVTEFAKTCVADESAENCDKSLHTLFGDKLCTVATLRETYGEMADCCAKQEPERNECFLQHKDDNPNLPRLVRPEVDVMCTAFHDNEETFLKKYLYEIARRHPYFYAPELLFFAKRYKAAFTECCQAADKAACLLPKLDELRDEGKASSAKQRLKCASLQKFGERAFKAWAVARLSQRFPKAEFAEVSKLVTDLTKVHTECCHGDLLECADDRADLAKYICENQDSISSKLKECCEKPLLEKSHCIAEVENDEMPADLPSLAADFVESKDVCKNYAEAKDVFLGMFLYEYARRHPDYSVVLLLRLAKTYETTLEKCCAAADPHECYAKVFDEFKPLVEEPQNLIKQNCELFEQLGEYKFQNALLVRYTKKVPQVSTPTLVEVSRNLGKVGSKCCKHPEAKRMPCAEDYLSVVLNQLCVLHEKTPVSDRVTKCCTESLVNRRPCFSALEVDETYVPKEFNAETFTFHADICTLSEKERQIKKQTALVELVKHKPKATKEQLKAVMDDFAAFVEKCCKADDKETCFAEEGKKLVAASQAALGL

Substance: VRLIVAVRIWRR-NH2 [IDR, IDR-1018]
- MBC (S. aureus DSM 1104 [1]): 128 (83) µg/ml
- MBC (S. aureus DSM 1104 SCV [2]): 128 (83) µg/ml
- MBC (S. aureus MRSA3): 128 (83) µg/ml
- MBC (S. aureus MRSA4): > 256 µg/mL
- MBC (S. aureus MRSA9): 128 (83) µg/ml
- MBC (S. aureus MRSA538 SCV): 128 (83) µg/ml
- MBC (S. aureus MRSA8 SCV [3]): 128 (83) µg/ml
- MBC (S. aureus MRSA9 SCV): 128 (83) µg/ml
- MBC (E. faecalis DSM 2570 [4]): 64 (42) µg/ml
- MBC (E. faecalis WW4): 64 (42) µg/ml
- MBC (E. faecalis WW6 [5]): 64 (42) µg/ml
- MBC (E. faecalis TRE1): 64 (42) µg/ml
- MBC (E. faecalis TRE2 [6]): 128 (83) µg/ml
- MBC (E. faecalis TRE4): 16 (10) µg/ml
- MBC (E. faecium VRE1): 32 (21) µg/ml
- MBC (E. faecium VRE2): 32 (21) µg/ml
- MBIC90 (S. aureus DSM 1104 SCV [7]): 83 µM
- MBIC90 (E. faecalis DSM 2570 [8]): 167 µM
- MBIC90 (E. faecalis TRE2 [9]): 167 µM
- MBIC90 (E. faecalis WW6 [10]): > 256 µg/mL
- MBIC90 (S. aureus DSM 1104 [11]): 42 µM
- MBIC90 (S. aureus MRSA8 SCV [12]): 42 µM
- Bound HSA [13, 16]: 97.98%
- log k HSA [13, 17]: 1.51
- Bound AGP [14, 16]: 93.37%
- log k AGP [14, 17]: 1.09
- chromatographic logD ([15]; pH 2.6): -0.53
- chromatographic logD ([15]; pH 7.4): 0.88
- chromatographic logD ([15]; pH 10.5): 4.43
- 1h LD50 (Danio rerio embryos; 1 hour exposure): 15 µg/mL
- 3h LD50 (Danio rerio embryos; 3 hours exposure): 11 µg/mL
- Haemolysis at 5 μM (human erythrocytes; 5 μM peptide): 18%
- Haemolysis at 10 μM (human erythrocytes; 10 μM peptide): 28%
